PMC12449377, “Psychedelic-like effects induced by 2,5-dimethoxy-4-iodoamphetamine, lysergic acid diethylamide, and psilocybin in male and female C57BL/6J mice” (Psychopharmacology, 2025)
pKi: −log10 of the molar value. Like-named read-outs stand apart in the source and are kept apart here.

Assays:
5-HT2A = target: T1, 5-HT2A (Mus musculus, UniProt P35363); test: Competition binding vs [3H]M100907 in mouse brain membranes
T1 construct: tissue BioIVT; host or cells: whole C57BL/6 mouse brain minus cerebellum, male and female
Method: (§1) Competition binding studies were conducted in mouse brain tissue as previously described (Glatfelter et al. [2022b]). Briefly, the experiments utilized membranes prepared from whole C57BL/6 mouse brain minus cerebellum (BioIVT, Westbury, NY, USA). […] We assessed the ability of test drugs to compete for [^3H]M100907 binding at 5-HT2A (1 nM) or [^3H]8-OH-DPAT binding at 5-HT1A (0.5 nM). Radioligands were purchased commercially (PerkinElmer, Boston, MA, USA). Nonspecific binding was determined using 10 µM ketanserin for 5-HT2A and serotonin for 5-HT1A. All data represent 3 experiments performed in triplicate.
(§2) Concentration-response data were fit to a single site non-linear regression model. For the HTR studies, potencies were determined from the ascending limb of the dose-response curves using ED50 potency values from [agonist] vs. response (variable slope, four parameter) least squares fit non-linear regression analyses, whereas efficacy was defined by the top output parameter or Emax from the aforementioned analyses. […] Best-fit values for ED50 and Emax from non-linear regression analyses were compared by extra sum-of-squares F tests. Mean effects for each behavioral endpoint were compared using two-way ANOVA (dose x sex), followed by Sidak’s multiple comparisons post-hoc test. Mean effects for pooled mouse behavioral data were compared via Welch’s ANOVA with Dunnett’s T3 post-hoc test, comparing all doses to saline vehicle controls (0 mg/kg). Alpha was set to 0.05 for all analyses.

5-HT1A = target: T2, 5-HT1A (Mus musculus, UniProt Q64264); test: Competition binding vs [3H]8-OH-DPAT in mouse brain membranes
T2 construct: tissue BioIVT; host or cells: whole C57BL/6 mouse brain minus cerebellum, male and female
T2 sequence (Q64264 1-421): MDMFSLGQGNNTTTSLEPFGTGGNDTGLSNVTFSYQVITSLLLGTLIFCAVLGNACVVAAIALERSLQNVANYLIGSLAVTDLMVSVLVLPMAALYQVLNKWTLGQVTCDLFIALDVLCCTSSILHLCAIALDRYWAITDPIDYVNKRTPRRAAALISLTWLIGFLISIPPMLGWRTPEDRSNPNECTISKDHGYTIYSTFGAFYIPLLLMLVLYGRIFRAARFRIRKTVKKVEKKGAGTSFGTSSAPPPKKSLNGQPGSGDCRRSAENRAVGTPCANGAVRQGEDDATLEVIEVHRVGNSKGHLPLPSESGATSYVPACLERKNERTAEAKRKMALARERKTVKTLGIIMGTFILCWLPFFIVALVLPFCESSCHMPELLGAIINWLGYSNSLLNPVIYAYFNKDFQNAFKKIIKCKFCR
Method: as §1, §2

C57BL/6J mice [1] = test: Head twitch response (HTR) in mice; format: in vivo, mouse; conditions: for HTR (total events) Mean: 30 min; for ED50: Mus musculus, sc
Method: Each drug was tested using groups of 12 mice per sex (i.e., 24 total mice per drug). Experimental sessions were conducted once every 1–2 weeks for 2 months per drug. Experimental sessions were spaced apart by at least 1 week to minimize the potential for tolerance to drug effects (Canal and Morgan [2012]; Darmani et al. [1990a]; de la Fuente Revenga et al. [2022]). Experiments were conducted during the light phase (1300–1700 local time; lights on = 0700 in a 12/12 light/dark cycle).
(§3) At 1–2 weeks prior to the beginning of experiments, mice were habituated to handling and receiving s.c. saline injections. On the day of an experiment, mice were acclimated to the testing room in their home cage for at least 30 min prior to the start of sessions. Prior to each session, mice were weighed, and resting body temperatures were recorded. Mice were then placed into experimental chambers for acclimation. Behavioral testing was carried out in TruScan mouse locomotor arenas equipped with photobeam arrays (Coulbourn Instruments, Holliston, MA, USA) that were modified with cylindrical inserts and transparent flooring to aid in semi-automated HTR detection as previously described (Glatfelter et al. [2022a]). After 5 min of acclimation, basal body temperature was recorded followed by s.c. injection of drug or vehicle, and mice were returned to test chambers for 30 min. Dose ranges for each drug were 0.03–10 mg/kg for DOI, 0.03–10 mg/kg for psilocybin, and 0.003–1 mg/kg for LSD. Mice were randomly assigned to specific doses at the beginning of the experiment and received different doses at each session.
(§4) During each session, locomotor activity was quantified via photobeam tracking of distance traveled in cm. Overhead GoPro Hero Black 7 video recordings (120 fps, 960p resolution) were analyzed using a commercially available software package from Clever Sys Inc. (Reston, VA, USA) for the measurement of HTR activity. Mouse body temperature was also collected post-session to calculate temperature change values (basal - post session temperature reading).
as §2

C57BL/6J mice [2] = test: Body temperature change in mice; format: in vivo, mouse; conditions: for Body Temp Δ (°C) Mean: post 30 min session
Method: All mice were injected s.c. with temperature transponders (14 × 2 mm, model IPTT-300, Avidity Science, Waterford Wisconsin, USA) under brief isoflurane immobilization, and were given at least 1 week to recover (Glatfelter et al. [2022b]). Mice were single housed post-implant, and for the duration of the experiments, to protect their devices from being removed by cage mates. Temperature was measured noninvasively using a handheld reader which is sensitive to the transponder signals.
as §3, §4, §2

[3] = male and female mouse brain membranes, summary statement

T1 sequence (P35363 whole entry): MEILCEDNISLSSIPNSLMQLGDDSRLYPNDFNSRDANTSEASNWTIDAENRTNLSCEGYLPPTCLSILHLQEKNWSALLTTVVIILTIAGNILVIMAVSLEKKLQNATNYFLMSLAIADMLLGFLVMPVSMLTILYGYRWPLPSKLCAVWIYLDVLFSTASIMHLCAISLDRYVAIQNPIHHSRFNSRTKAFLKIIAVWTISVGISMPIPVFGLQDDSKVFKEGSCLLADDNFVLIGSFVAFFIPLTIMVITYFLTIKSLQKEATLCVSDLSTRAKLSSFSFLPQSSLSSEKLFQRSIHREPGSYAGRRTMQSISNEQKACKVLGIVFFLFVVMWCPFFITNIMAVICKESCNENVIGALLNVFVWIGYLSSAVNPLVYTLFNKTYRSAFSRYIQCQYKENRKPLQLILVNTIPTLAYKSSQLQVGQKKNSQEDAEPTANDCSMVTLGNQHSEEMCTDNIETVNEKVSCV

COc1cc(CC(C)N)c(OC)cc1I (stereo not drawn) [DOI, 2,5-dimethoxy-4-iodoamphetamine]
pKi (5-HT2A; [3H]M100907 Binding ♀ m5-HT2A Ki, female mouse brain membranes): 7.96
pKi (5-HT2A; [3H]M100907 Binding ♂ m5-HT2A Ki, male mouse brain membranes): 7.89
5-HT2A binding affinity (Ki), males and females (5-HT2A; [3]): low nanomolar affinity
pKi (5-HT1A; [3H]8-OH-DPAT Binding ♀ m5-HT1A Ki, female mouse brain membranes): 5.58
pKi (5-HT1A; [3H]8-OH-DPAT Binding ♂ m5-HT1A Ki, male mouse brain membranes): 5.54
5-HT1A binding affinity (Ki), males and females (5-HT1A; [3]): µM affinity
HTR (total events) Mean (C57BL/6J mice [1]; 0.03 mg/kg s.c., female mice): 12.5 total events
HTR (total events) Mean (C57BL/6J mice [1]; 0.03 mg/kg s.c., male mice): 8.8 total events
HTR (total events) Mean (C57BL/6J mice [1]; 0.03 mg/kg s.c., pooled sexes): 10.7 total events
HTR (total events) Mean (C57BL/6J mice [1]; 0.1 mg/kg s.c., female mice): 19.7 total events
HTR (total events) Mean (C57BL/6J mice [1]; 0.1 mg/kg s.c., male mice): 22.4 total events
HTR (total events) Mean (C57BL/6J mice [1]; 0.1 mg/kg s.c., pooled sexes): 20.8 total events
HTR (total events) Mean (C57BL/6J mice [1]; 0.3 mg/kg s.c., female mice): 59.0 total events
HTR (total events) Mean (C57BL/6J mice [1]; 0.3 mg/kg s.c., male mice): 57.3 total events
HTR (total events) Mean (C57BL/6J mice [1]; 0.3 mg/kg s.c., pooled sexes): 58.2 total events
HTR (total events) Mean (C57BL/6J mice [1]; 1 mg/kg s.c., female mice): 91.2 total events
HTR (total events) Mean (C57BL/6J mice [1]; 1 mg/kg s.c., male mice): 89.7 total events
HTR (total events) Mean (C57BL/6J mice [1]; 1 mg/kg s.c., pooled sexes): 90.4 total events
HTR (total events) Mean (C57BL/6J mice [1]; 3 mg/kg s.c., female mice): 108.8 total events
HTR (total events) Mean (C57BL/6J mice [1]; 3 mg/kg s.c., male mice): 106.8 total events
HTR (total events) Mean (C57BL/6J mice [1]; 3 mg/kg s.c., pooled sexes): 107.8 total events
HTR (total events) Mean (C57BL/6J mice [1]; 10 mg/kg s.c., female mice): 148.7 total events
HTR (total events) Mean (C57BL/6J mice [1]; 10 mg/kg s.c., male mice): 103.3 total events
HTR (total events) Mean (C57BL/6J mice [1]; 10 mg/kg s.c., pooled sexes): 126.0 total events
ED50 (C57BL/6J mice [1]; female mice, ascending limb of dose-response curve, read-out: HTR ♀ ED50 (95% CI)): 0.52 mg/kg
ED50 (C57BL/6J mice [1]; male mice, ascending limb of dose-response curve, read-out: HTR ♂ ED50 (95% CI)): 0.3 mg/kg
ED50 (C57BL/6J mice [1]; pooled male and female mice, read-out: HTR ♂+♀ ED50 (95% CI)): 0.33 mg/kg
Duration of HTR effect in the session (C57BL/6J mice [1]; peak/active doses, 30 min session): lasted throughout the entire 30 min session
Time of peak effects on HTR post drug administration (C57BL/6J mice [1]; s.c., both sexes, 30 min session): 5 to 10 min
HTR ♀ Emax (95% CI) (C57BL/6J mice [1]; s.c., female mice, top of regression fit): 131 (118–146) HTR events
HTR ♂ Emax (95% CI) (C57BL/6J mice [1]; s.c., male mice, top of regression fit): 105 (93–118) HTR events
HTR ♂+♀ Emax (95% CI) (C57BL/6J mice [1]; s.c., pooled male and female mice): 111 (101–127) HTR events
Body Temp Δ (°C) Mean (C57BL/6J mice [2]; 0.03 mg/kg s.c., female mice): 0.0 °C
Body Temp Δ (°C) Mean (C57BL/6J mice [2]; 0.03 mg/kg s.c., male mice): 0.2 °C
Body Temp Δ (°C) Mean (C57BL/6J mice [2]; 0.03 mg/kg s.c., pooled sexes): 0.1 °C
Body Temp Δ (°C) Mean (C57BL/6J mice [2]; 0.1 mg/kg s.c., female mice): 0.2 °C
Body Temp Δ (°C) Mean (C57BL/6J mice [2]; 0.1 mg/kg s.c., male mice): 0.3 °C
Body Temp Δ (°C) Mean (C57BL/6J mice [2]; 0.1 mg/kg s.c., pooled sexes): -0.1 °C
Body Temp Δ (°C) Mean (C57BL/6J mice [2]; 0.3 mg/kg s.c., female mice): 0.2 °C
Body Temp Δ (°C) Mean (C57BL/6J mice [2]; 0.3 mg/kg s.c., male mice): 0.6 °C
Body Temp Δ (°C) Mean (C57BL/6J mice [2]; 0.3 mg/kg s.c., pooled sexes): 0.2 °C
Body Temp Δ (°C) Mean (C57BL/6J mice [2]; 1 mg/kg s.c., female mice): -0.3 °C
Body Temp Δ (°C) Mean (C57BL/6J mice [2]; 1 mg/kg s.c., male mice): -0.1 °C
Body Temp Δ (°C) Mean (C57BL/6J mice [2]; 1 mg/kg s.c., pooled sexes): 0.4 °C
Body Temp Δ (°C) Mean (C57BL/6J mice [2]; 3 mg/kg s.c., female mice): -0.3 °C
Body Temp Δ (°C) Mean (C57BL/6J mice [2]; 3 mg/kg s.c., male mice): -0.1 °C
Body Temp Δ (°C) Mean (C57BL/6J mice [2]; 3 mg/kg s.c., pooled sexes): -0.2 °C
Body Temp Δ (°C) Mean (C57BL/6J mice [2]; 10 mg/kg s.c., female mice): -0.4 °C
Body Temp Δ (°C) Mean (C57BL/6J mice [2]; 10 mg/kg s.c., male mice): -0.9 °C
Body Temp Δ (°C) Mean (C57BL/6J mice [2]; 10 mg/kg s.c., pooled sexes): -0.6 °C
Body temperature vs. vehicle controls (C57BL/6J mice [2]; 0.03-10 mg/kg s.c., both sexes): did not change body temperature
